# Test results reported in US20250154686A1, “COMPOUND LIBRARY” (CHUGAI SEIYAKU KABUSHIKI KAISHA, priority 2021, published 2025).
# Biological target: T1, Bcl-2 protein (Recombinant Human Bcl-2 Protein) (Homo sapiens, UniProt P10415)
# T1 construct: purchased Novus Biologicals NBP2-34889
# Assay: AS-MS evaluation of binding of the Example 4 mixture library (1200 compounds/well) to Bcl-2, ASMS ratio (%)
# How it was run: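 Recombinant human Bcl-2 at 20 μM final was exposed to a 1200-member compound pool (20 nM per compound) in pH 7.4 Tris-HCl buffer containing NaCl, Tween-20 and DTT. After 1 h at 23 °C, protein–ligand complexes passed SEC spin columns; LC/MS signals were compared with protein-free standard and blank samples to give ASMS ratio.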
# [1] = replicate n = 1, mixture library, value belongs to the MS peak assigned to the compound
# [2] = replicate n = 2, mixture library, value belongs to the MS peak assigned to the compound
# [3] = AS-MS, Example 4 mixture library, Bcl-2, replicate n = 1
# [4] = AS-MS, Example 4 mixture library, Bcl-2, replicate n = 2
# T1 sequence (P10415 whole entry): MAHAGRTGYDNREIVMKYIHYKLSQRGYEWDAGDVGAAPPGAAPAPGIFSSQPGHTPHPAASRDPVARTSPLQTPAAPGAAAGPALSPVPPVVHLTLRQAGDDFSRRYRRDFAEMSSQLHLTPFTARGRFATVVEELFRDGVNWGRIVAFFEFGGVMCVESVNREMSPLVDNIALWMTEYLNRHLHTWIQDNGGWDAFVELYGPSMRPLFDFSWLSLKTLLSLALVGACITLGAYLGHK
smiles,measurement,setting,value
"CCOc1cncc(-c2ccc(CN3CCN(c4ccc(C(=O)NS(=O)(=O)C(C)(C)C)nn4)CC3)cc2F)c1 [Compound B2L078-01, N-tert-Butylsulfonyl-6-[4-[[4-(5-ethoxypyridin-3-yl)-3-fluorophenyl]methyl]piperazin-1-yl]pyridazine-3-carboxamide]",ASMS ratio (%) n = 1,[1],1.1%
same,ASMS ratio (%) n = 2,[2],−0.7%
CCOc1cccc(-c2ccc(CN3CCN(c4ccc(C(=O)NS(=O)(=O)C(C)(C)C)nn4)CC3)c(OC)c2)c1 [Compound B2L079-01],ASMS ratio (%) n = 1,[1],0.0%
same,ASMS ratio (%) n = 2,[2],0.0%
CCOc1cncc(-c2ccc(CN3CCN(c4ccc(C(=O)NS(=O)(=O)C(C)(C)C)nn4)CC3)c(OC)c2)c1 [Compound B2L080-01],ASMS ratio (%) n = 1,[1],0.0%
same,ASMS ratio (%) n = 2,[2],0.0%
"CCOc1cccc(-c2cc(CN3CCN(c4ccc(C(=O)NS(=O)(=O)C(C)(C)C)nn4)CC3)cc(OCC)c2)c1 [Compound B2L081-01, N-tert-Butylsulfonyl-6-[4-[3-ethoxy-5-(3-ethoxyphenyl)phenyl]methyl]piperazin-1-yllpyridazine-3-carboxamide]",ASMS ratio (%) n = 1,[3],0.0%
same,ASMS ratio (%) n = 2,[4],0.0%
CCOc1cncc(-c2cc(CN3CCN(c4ccc(C(=O)NS(=O)(=O)C(C)(C)C)nn4)CC3)cc(OCC)c2)c1 [Compound B2L082-01],ASMS ratio (%) n = 1,[3],2.6%
same,ASMS ratio (%) n = 2,[4],−1.2%
CCOc1cccc(-c2cc(CN3CCN(c4ccc(C(=O)NS(=O)(=O)C(C)(C)C)nn4)CC3)cc(OC(C)C)c2)c1 [Compound B2L083-01],ASMS ratio (%) n = 1,[3],0.0%
same,ASMS ratio (%) n = 2,[4],0.0%
"CCOc1cncc(-c2cc(CN3CCN(c4ccc(C(=O)NS(=O)(=O)C(C)(C)C)nn4)CC3)cc(OC(C)C)c2)c1 [Compound B2L084-01, N-tert-Butylsulfonyl-6-[4-[3-(5-ethoxypyridin-3-yl)-5-propan-2-yloxyphenylmethyl]piperazin-1-yl]pyridazine-3-carboxamide]",ASMS ratio (%) n = 1,[3],−3.0%
same,ASMS ratio (%) n = 2,[4],−1.9%
"CCOc1cccc(-c2cc(OC)c(CN3CCN(c4ccc(C(=O)NS(=O)(=O)C(C)(C)C)nn4)CC3)c(OC)c2)c1 [Compound B2L085-01, N-tert-Butylsulfonyl-6-[4-[[4-(3-ethoxyphenyl)-2,6-dimethoxyphenyl]methyl]piperazin-1-yl]pyridazine-3-carboxamide]",ASMS ratio (%) n = 1,[3],0.0%
same,ASMS ratio (%) n = 2,[4],0.0%
CCOc1cncc(-c2cc(OC)c(CN3CCN(c4ccc(C(=O)NS(=O)(=O)C(C)(C)C)nn4)CC3)c(OC)c2)c1 [Compound B2L086-01],ASMS ratio (%) n = 2,[4],0.0%
"CCOc1cccc(-c2cc(CN3CCN(c4ccc(C(=O)NS(=O)(=O)C(C)(C)C)nn4)CC3)cc(C(F)(F)F)c2)c1 [Compound B2L087-01, N-tert-Butylsulfonyl-6-[4-[[3-(3-ethoxyphenyl)-5-(trifluoromethyl)phenyl]methyl]piperazin-1-yl]pyridazine-3-carboxamide]",ASMS ratio (%) n = 1,[3],1.9%
same,ASMS ratio (%) n = 2,[4],−24.6%
CCOc1cncc(-c2cc(CN3CCN(c4ccc(C(=O)NS(=O)(=O)C(C)(C)C)nn4)CC3)cc(C(F)(F)F)c2)c1 [Compound B2L088-01],ASMS ratio (%) n = 1,[3],0.0%
same,ASMS ratio (%) n = 2,[4],2.8%
"CCOc1cccc(-c2cc(CN3CCN(c4ccc(C(=O)NS(=O)(=O)C(C)(C)C)nn4)CC3)cc(OC(F)(F)F)c2)c1 [Compound B2L089-01, N-tert-Butylsulfonyl-6-[4-[[3-(3-ethoxyphenyl)-5-(trifluoromethoxy)phenyl]methyl]piperazin-1-yl]pyridazine-3-carboxamide]",ASMS ratio (%) n = 1,[3],0.0%
same,ASMS ratio (%) n = 2,[4],0.0%
CCOc1cncc(-c2cc(CN3CCN(c4ccc(C(=O)NS(=O)(=O)C(C)(C)C)nn4)CC3)cc(OC(F)(F)F)c2)c1 [Compound B2L090-01],ASMS ratio (%) n = 1,[3],0.0%
same,ASMS ratio (%) n = 2,[4],0.0%
CCOc1cccc(-c2ccc(CN3CCN(c4ccc(C(=O)NS(=O)(=O)C(C)(C)C)nn4)CC3)c3ccccc23)c1 [Compound B2L091-01],ASMS ratio (%) n = 1,[3],0.0%
same,ASMS ratio (%) n = 2,[4],0.0%
"CCOc1cncc(-c2ccc(CN3CCN(c4ccc(C(=O)NS(=O)(=O)C(C)(C)C)nn4)CC3)c3ccccc23)c1 [Compound B2L092-01, N-tert-Butylsulfonyl-6-[4-[[4-(5-ethoxypyridin-3-yl)naphthalen-1-yl]methyl]piperazin-1-yl]pyridazine-3-carboxamide]",ASMS ratio (%) n = 1,[3],5.5%
same,ASMS ratio (%) n = 2,[4],7.8%
CCOc1cccc(-c2csc(CN3CCN(c4ccc(C(=O)NS(=O)(=O)C(C)(C)C)nn4)CC3)c2)c1 [Compound B2L093-01],ASMS ratio (%) n = 2,[4],0.0%
"CCOc1cncc(-c2csc(CN3CCN(c4ccc(C(=O)NS(=O)(=O)C(C)(C)C)nn4)CC3)c2)c1 [Compound B2L094-01, N-tert-Butylsulfonyl-6-[4-[[4-(5-ethoxypyridin-3-yl)thiophen-2-yl]methyl]piperazin-1-yl]pyridazine-3-carboxamide]",ASMS ratio (%) n = 1,[3],0.2%
same,ASMS ratio (%) n = 2,[4],1.8%
CCOc1cccc(C#Cc2ccccc2CN2CCN(c3ccc(C(=O)NS(=O)(=O)C(C)(C)C)nn3)CC2)c1 [Compound B2L095-01],ASMS ratio (%) n = 1,[3],0.0%
same,ASMS ratio (%) n = 2,[4],0.0%
CCOc1cncc(C#Cc2ccccc2CN2CCN(c3ccc(C(=O)NS(=O)(=O)C(C)(C)C)nn3)CC2)c1 [Compound B2L096-01],ASMS ratio (%) n = 1,[3],0.0%
same,ASMS ratio (%) n = 2,[4],0.0%
"CCOc1cccc(-c2ccc(C(C)N3CCN(c4ccc(C(=O)NS(=O)(=O)C(C)(C)C)cc4)CC3)cc2)c1 (centres unmarked) [Compound B2L097-01, N-tert-Butylsulfonyl-4-[4-[1-[4-(3-ethoxyphenyl)phenyl]ethyl]piperazin-1-yl]benzamide]",ASMS ratio (%) n = 1,[3],0.0%
same,ASMS ratio (%) n = 2,[4],0.0%
"CCOc1cncc(-c2ccc(C(C)N3CCN(c4ccc(C(=O)NS(=O)(=O)C(C)(C)C)cc4)CC3)cc2)c1 (centres unmarked) [Compound B2L098-01, N-tert-Butylsulfonyl-4-[4-[1-[4-(5-ethoxypyridin-3-yl)phenyl]ethyl]piperazin-1-yl]benzamide]",ASMS ratio (%) n = 1,[3],3.9%
same,ASMS ratio (%) n = 2,[4],−5.0%
"CCOc1cncc(-c2ccc(C(C)N3CCN(c4ccc(C(=O)NS(=O)(=O)C(C)(C)C)cc4)CC3)c(F)c2)c1 (centres unmarked) [Compound B2L100-01, N-tert-Butylsulfonyl-4-[4-[1-[4-(5-ethoxypyridin-3-yl)-2-fluorophenyl]ethyl]piperazin-1-yl]benzamide]",ASMS ratio (%) n = 1,[3],0.0%
same,ASMS ratio (%) n = 2,[4],0.0%
"CCOc1cccc(-c2csc(C(=O)N3CCN(c4ccc(C(=O)NS(=O)(=O)CCC(F)(F)F)nn4)CC3)c2)c1 [Compound B2N001-01, 6-[4-[4-(3-Ethoxyphenyl)thiophene-2-carbonyl]piperazin-1-yl]-N-(3,3,3-trifluoropropylsulfonyl)pyridazine-3-carboxamide]",ASMS ratio (%) n = 2,[4],0.0%
"CCOc1cncc(-c2csc(C(=O)N3CCN(c4ccc(C(=O)NS(=O)(=O)CCC(F)(F)F)nn4)CC3)c2)c1 [Compound B2N002-01, 6-[4-[4-(5-Ethoxypyridin-3-yl)thiophene-2-carbonyl]piperazin-1-yl]-N-(3,3,3-trifluoropropylsulfonyl)pyridazine-3-carboxamide]",ASMS ratio (%) n = 1,[3],0.0%
same,ASMS ratio (%) n = 2,[4],0.0%
"CCOc1cccc(-c2ccc(C(=O)N3CCN(c4ccc(C(=O)NS(=O)(=O)CCC(F)(F)F)nn4)CC3)cc2C)c1 [Compound B2N003-01, 6-[4-[4-(3-Ethoxyphenyl)-3-methylbenzoyl]piperazin-1-yl]-N-(3,3,3-trifluoropropylsulfonyl)pyridazine-3-carboxamide]",ASMS ratio (%) n = 1,[3],0.0%
same,ASMS ratio (%) n = 2,[4],0.0%
"CCOc1cncc(-c2ccc(C(=O)N3CCN(c4ccc(C(=O)NS(=O)(=O)CCC(F)(F)F)nn4)CC3)cc2C)c1 [Compound B2N004-01, 6-[4-[4-(5-Ethoxypyridin-3-yl)-3-methylbenzoyl]piperazin-1-yl]-N-(3,3,3-trifluoropropylsulfonyl)pyridazine-3-carboxamide]",ASMS ratio (%) n = 1,[3],1.2%
same,ASMS ratio (%) n = 2,[4],−2.0%
"CCOc1cccc(C#Cc2ccccc2C(=O)N2CCN(c3ccc(C(=O)NS(=O)(=O)CCC(F)(F)F)nn3)CC2)c1 [Compound B2N007-01, 6-[4-[2-[2-(3-Ethoxyphenyl)ethynyl]benzoyl]piperazin-1-yl]-N-(3,3,3-trifluoropropylsulfonyl)pyridazine-3-carboxamide]",ASMS ratio (%) n = 1,[3],0.0%
same,ASMS ratio (%) n = 2,[4],0.0%
"CCOc1cncc(C#Cc2ccccc2C(=O)N2CCN(c3ccc(C(=O)NS(=O)(=O)CCC(F)(F)F)nn3)CC2)c1 [Compound B2N008-01, 6-[4-[2-[2-(5-Ethoxypyridin-3-yl)ethynyl]benzoyl]piperazin-1-yl]-N-(3,3,3-trifluoropropylsulfonyl)pyridazine-3-carboxamide]",ASMS ratio (%) n = 1,[3],0.0%
same,ASMS ratio (%) n = 2,[4],−0.4%
